Results on 16 compounds are retold here after ChEMBL document CHEMBL1129179, “Antimicrobial evaluation of 3,1-benzoxazin-4-ones, 3,1-benzothiazin-4-ones, 4-alkoxyquinazolin-2-carbonitriles and N-arylimino-1,2,3-dithiazoles” (1996).

Each structure is given as a SMILES string. In brackets after ≈: the same amount, converted by molar mass. Activity calls are given as the source filed them. The rule behind the calls is not given here. Some results are limits rather than exact numbers.

One assay concerns Escherichia coli. In words: Antibacterial activity against gram-negative bacteria Escherichia coli ATCC 25922; No effect. In kind it is functional, organism-based.
For the next assay, the system named is Enterococcus faecalis. In words: Antibacterial activity against gram-positive bacteria Enterococcus faecalis ATCC 29212; No effect. The assay is classed as functional, organism-based.
A further assay concerns Klebsiella pneumoniae. In words: Antibacterial activity against gram-negative bacteria K. pneumoniae; No effect. The assay is classed as functional, organism-based.
In a further assay the test system is Listeria monocytogenes. In words: Antibacterial activity against gram-positive bacteria Listeria monocytogenes CIP 82110T; No effect. In kind it is functional, organism-based.
In another assay the test system is Proteus mirabilis. In words: Antibacterial activity against gram-negative bacteria Proteus mirabilis CIP 1031811; No effect. In kind it is functional, organism-based.
Another assay deals with Pseudomonas aeruginosa. In words: Antibacterial activity against gram-negative bacteria Pseudomonas aeruginosa ATCC 27853; No effect. The assay is classed as functional, organism-based.
The next assay deals with Salmonella typhimurium. In words: Antibacterial activity against gram-negative bacteria Salmonella ser. Typhimurium; No effect. To be noted: Salmonella enterica subsp. enterica serovar Typhimurium. The assay is classed as functional, organism-based.
The next assay deals with Staphylococcus aureus. In words: Antibacterial activity against gram-positive bacteria Staphylococcus aureus ATCC 9144; No effect. The assay is classed as functional, organism-based.
A further assay deals with Streptococcus pyogenes. In words: Antibacterial activity against gram-positive bacteria Streptococcus pyogenes ATCC 19165; No effect. In kind it is functional, organism-based.
The next assay deals with Salmonella enterica. In words: Antibacterial activity against gram-negative bacteria S. choleraesuis; No effect. The assay is classed as functional, organism-based.
In assay [1] the test system is Nakaseomyces glabratus. In words: Minimum inhibitory concentration required for antifungal activity against Candida glabrata DSM 6425 strain. In kind it is functional.
Assay [2] has as its system Candida albicans. In words: Minimum fungicidal concentration required for antifungal activity against Candida albicans ATCC 10231 strain. The assay is classed as functional.
Assay [3] concerns Nakaseomyces glabratus. In words: Minimum fungicidal concentration required for antifungal activity against Candida glabrata DSM 6425 strain. The assay is classed as functional.
Assay [4] has as its system Candida tropicalis. In words: Minimum fungicidal concentration required for antifungal activity against Candida tropicalis DSM 1346 strain. The assay is classed as functional.
The test system of assay [5] is Candida tropicalis. In words: Minimum inhibitory concentration required for antifungal activity against Candida tropicalis DSM 1346 strain. In kind it is functional.
Assay [6] relates to Cryptococcus neoformans. In words: Minimum inhibitory concentration required for antifungal activity against Cryptococcus neoformans DSM 70219 strain. The assay is classed as functional.
Assay [7] deals with Candida albicans. In words: Minimum inhibitory concentration required for antifungal activity against Candida albicans ATCC 10231 strain. In kind it is functional.
Assay [8] deals with Cryptococcus neoformans. In words: Minimum fungicidal concentration required for antifungal activity against Cryptococcus neoformans DSM 70219 strain. The assay is classed as functional.
The subject of assay [9] is Pichia kudriavzevii. In words: Minimum fungicidal concentration required for antifungal activity against Issatchenkia orientalis DSM 6128 strain. In kind it is functional.
Assay [10] relates to Pichia kudriavzevii. In words: Minimum inhibitory concentration required for antifungal activity against Issatchenkia orientalis DSM 6128 strain. The assay is classed as functional.
A short description of assay [11]: Ratio of MFC99/MIC for antifungal activity against Candida albicans ATCC 10231 strain was determined. In kind it is functional.
The nature of assay [12]: Ratio of MFC99/MIC for antifungal activity against Candida glabrata DSM 6425 strain was determined. In kind it is functional.
The nature of assay [13]: Ratio of MFC99/MIC for antifungal activity against Cryptococcus neoformans DSM 70219 strain was determined. In kind it is functional.
A short description of assay [14]: Ratio of MFC99/MIC for antifungal activity against Issatchenkia orientalis DSM 6128 strain was determined. The assay is classed as functional.

Consider `CCOc1nc(C#N)nc2ccccc12`, for which the result with Escherichia coli, with Enterococcus faecalis, with Klebsiella pneumoniae, in the assay on Listeria monocytogenes, in the assay on Proteus mirabilis and in the assay with Pseudomonas aeruginosa was inactive. For the same compound, the result in the assay with Salmonella typhimurium, with Staphylococcus aureus, in the assay on Streptococcus pyogenes and in the assay with Salmonella enterica was inactive.
On to `COc1cc(C#N)c(/N=c2\ssnc2Cl)cc1OC`, for which the MIC is 32 µg/mL (≈ 102 µM) against Nakaseomyces glabratus [1]; 48 µg/mL (≈ 153 µM) in the assay with Candida tropicalis [5]; 32 µg/mL (≈ 102 µM) in the assay on Cryptococcus neoformans [6]; 32 µg/mL (≈ 102 µM) in the assay on Candida albicans [7]; 32 µg/mL (≈ 102 µM) in the assay with Pichia kudriavzevii [10]. Further, the MFC99 was 32 µg/mL (≈ 102 µM) against Candida albicans [2]; 48 µg/mL (≈ 153 µM) in the assay on Nakaseomyces glabratus [3]; >48 µg/mL in the assay with Candida tropicalis [4]; 32 µg/mL (≈ 102 µM) in the assay on Cryptococcus neoformans [8]; 48 µg/mL (≈ 153 µM) in the assay on Pichia kudriavzevii [9]. Besides, the Ratio is given as 1 in assay [11], 1.5 in assay [12], 1 in assay [13] and 1.5 in [14].
For `Clc1nss/c1=N\c1ccc2c(c1)OCCO2`, the MIC is 16 µg/mL (≈ 55.8 µM) with Nakaseomyces glabratus [1]; 48 µg/mL (≈ 167 µM) against Candida tropicalis [5]; 16 µg/mL (≈ 55.8 µM) against Cryptococcus neoformans [6]; 32 µg/mL (≈ 112 µM) in the assay with Candida albicans [7]; 48 µg/mL (≈ 167 µM) in the assay on Pichia kudriavzevii [10]. Also, the MFC99 against Candida albicans [2] is 48 µg/mL (≈ 167 µM); with Nakaseomyces glabratus [3] it was 48 µg/mL (≈ 167 µM); against Candida tropicalis [4] it was >48 µg/mL; in the assay with Cryptococcus neoformans [8], 16 µg/mL (≈ 55.8 µM); in the assay with Pichia kudriavzevii [9] it was >48 µg/mL. For the same compound, the Ratio in [11] is on record as 1.5; in assay [12] it was 3; in [13], 1.
Consider `CCCCOc1nc(C#N)nc2cc(OC)c(OC)cc12`, for which the result in the assay on Escherichia coli, with Enterococcus faecalis, in the assay on Klebsiella pneumoniae, in the assay on Listeria monocytogenes, in the assay with Proteus mirabilis and in the assay on Pseudomonas aeruginosa was inactive. In addition, the outcome in the assay with Salmonella typhimurium, in the assay on Staphylococcus aureus, with Streptococcus pyogenes and in the assay with Salmonella enterica was inactive.
As for `COC(=O)c1cc(OC)c(OC)cc1/N=c1\ssnc1Cl`, the MIC in the assay with Nakaseomyces glabratus [1] is 16 µg/mL (≈ 46.1 µM); in the assay on Candida tropicalis [5], 48 µg/mL (≈ 138 µM); in the assay with Cryptococcus neoformans [6] it was 32 µg/mL (≈ 92.3 µM); in the assay with Candida albicans [7], 32 µg/mL (≈ 92.3 µM); against Pichia kudriavzevii [10] it was 32 µg/mL (≈ 92.3 µM). In addition, the MFC99 was 48 µg/mL (≈ 138 µM) in the assay with Candida albicans [2]; 48 µg/mL (≈ 138 µM) against Nakaseomyces glabratus [3]; >48 µg/mL against Candida tropicalis [4]; 48 µg/mL (≈ 138 µM) against Cryptococcus neoformans [8]; 48 µg/mL (≈ 138 µM) in the assay on Pichia kudriavzevii [9]. For the same compound, the Ratio in [11] is 1.5; in assay [12], 3; in assay [13], 1.5; in assay [14], 1.5.
In the case of `COc1nc(C#N)nc2ccccc12`, the outcome with Escherichia coli, in the assay on Enterococcus faecalis, with Klebsiella pneumoniae, with Listeria monocytogenes, in the assay with Proteus mirabilis and in the assay on Pseudomonas aeruginosa was inactive. Further, the outcome in the assay with Salmonella typhimurium, in the assay with Staphylococcus aureus, in the assay on Streptococcus pyogenes and in the assay on Salmonella enterica was inactive.
On to `N#Cc1nc2ccccc2c(=O)s1`, for which the result with Escherichia coli, with Enterococcus faecalis, in the assay with Klebsiella pneumoniae, in the assay with Listeria monocytogenes, in the assay with Proteus mirabilis and with Pseudomonas aeruginosa was inactive. Besides, the result in the assay with Salmonella typhimurium, in the assay with Staphylococcus aureus, in the assay on Streptococcus pyogenes and in the assay on Salmonella enterica was inactive.
On to `COc1cc2nc(C#N)nc(OC)c2cc1OC`, for which the result in the assay with Escherichia coli, with Enterococcus faecalis, in the assay with Klebsiella pneumoniae, with Listeria monocytogenes, in the assay with Proteus mirabilis and with Pseudomonas aeruginosa was inactive. For the same compound, the outcome in the assay with Salmonella typhimurium, in the assay with Staphylococcus aureus, in the assay with Streptococcus pyogenes and in the assay with Salmonella enterica was inactive.
As to `CCOc1nc(C#N)nc2cc(OC)c(OC)cc12`, the outcome in the assay with Escherichia coli, in the assay with Enterococcus faecalis, with Klebsiella pneumoniae, in the assay with Listeria monocytogenes, in the assay on Proteus mirabilis and with Pseudomonas aeruginosa was inactive. Besides, the result with Salmonella typhimurium, with Staphylococcus aureus, in the assay on Streptococcus pyogenes and in the assay with Salmonella enterica was inactive.
In the case of `CCSc1nc(C#N)nc2cc(OC)c(OC)cc12`, the result in the assay on Escherichia coli, in the assay with Enterococcus faecalis, in the assay with Klebsiella pneumoniae, in the assay with Listeria monocytogenes, with Proteus mirabilis and in the assay on Pseudomonas aeruginosa was inactive. For the same compound, the outcome in the assay on Salmonella typhimurium, in the assay with Staphylococcus aureus, in the assay on Streptococcus pyogenes and in the assay on Salmonella enterica was inactive.
With `COc1cc2nc(C#N)nc(OC(C)C)c2cc1OC`, the result with Escherichia coli, in the assay with Enterococcus faecalis, in the assay on Klebsiella pneumoniae, in the assay with Listeria monocytogenes, with Proteus mirabilis and in the assay with Pseudomonas aeruginosa was inactive. The outcome in the assay on Salmonella typhimurium, in the assay on Staphylococcus aureus, in the assay with Streptococcus pyogenes and in the assay on Salmonella enterica was inactive.
As to `COc1cc2nc(C#N)oc(=O)c2cc1OC`, the result with Escherichia coli, with Enterococcus faecalis, in the assay on Klebsiella pneumoniae, in the assay on Listeria monocytogenes, in the assay with Proteus mirabilis and in the assay with Pseudomonas aeruginosa was inactive. Moreover, the result in the assay with Salmonella typhimurium, with Staphylococcus aureus, in the assay with Streptococcus pyogenes and in the assay with Salmonella enterica was inactive.
Take `COc1cc2nc(C#N)sc(=O)c2cc1OC`: the result in the assay with Escherichia coli, in the assay on Enterococcus faecalis, in the assay on Klebsiella pneumoniae, in the assay with Listeria monocytogenes, with Proteus mirabilis and with Pseudomonas aeruginosa was inactive. The result in the assay with Salmonella typhimurium, in the assay on Staphylococcus aureus, with Streptococcus pyogenes and in the assay with Salmonella enterica was inactive.
For the compound `N#Cc1nc2cc(Cl)ccc2c(=O)o1`, the outcome with Escherichia coli, in the assay on Enterococcus faecalis, in the assay on Klebsiella pneumoniae, in the assay with Listeria monocytogenes, with Proteus mirabilis and with Pseudomonas aeruginosa was inactive. Further, the result with Salmonella typhimurium, in the assay on Staphylococcus aureus, in the assay on Streptococcus pyogenes and with Salmonella enterica was inactive.
On to `N#Cc1nc2cc(Cl)ccc2c(=O)s1`, for which the outcome with Escherichia coli, in the assay on Enterococcus faecalis, in the assay with Klebsiella pneumoniae, in the assay with Listeria monocytogenes, in the assay on Proteus mirabilis and in the assay on Pseudomonas aeruginosa was inactive. The result in the assay on Salmonella typhimurium, in the assay with Staphylococcus aureus, in the assay on Streptococcus pyogenes and in the assay on Salmonella enterica was inactive.
Regarding `N#Cc1nc2ccccc2c(=O)o1`, the result with Escherichia coli, with Enterococcus faecalis, with Klebsiella pneumoniae, with Listeria monocytogenes, with Proteus mirabilis and in the assay on Pseudomonas aeruginosa was inactive. In addition, the outcome in the assay on Salmonella typhimurium, with Staphylococcus aureus, in the assay with Streptococcus pyogenes and in the assay with Salmonella enterica was inactive.

As a reminder, the MIC is the lowest concentration found to suppress growth. Low values mean inhibition by little substance, high ones a need for much substance.
